Data taken from patent US7244767B2 (priority 1998, dated 2007).
Several values for one entry are separate records, joined by “and”; a condition that tells them apart may be missing. Identical values can stand only once. Like-named read-outs stand apart in the source and are kept apart here.

Legend:
[1] = molecular target: T1, cannabinoid receptor CB1 (Mus musculus, UniProt P47746); assay: Binding to cannabinoid receptor CB1, displacement of [3H]SR141716A on N18TG2 cell membranes; conditions: 300 pM [3H]SR141716A, 90 min at 30° C., read-out: Ki, CB1 receptor, N18TG2 + cells, [3H]SR141716A ligand
T1 construct: endogenous in cells; host or cells: N18TG2 mouse neuroblastoma cells
Procedure: Mouse neuroblastoma cells N18TG2 which selectively express the cannabinoid receptor CB1 and rat leukaemia basophil cells RBL-2H3+ which selectively express the cannabinoid receptor CB2 were used. […] The binding tests were carried out with membranes of the said cells resuspended in 50 mM pH 7.0 Tris buffer; 2.5 mM mgCl2; 0.8 mM EDTA; 0.05% bovine serum albumin (BSA); 0.01% ethanol and in the presence of 100 μM phenylmethylsulphonyl fluoride (PMSF; sigma) using 300 pM of [^3H]SR141716A and [^3H]WIN55,212-2, respectively, as ligand.
(§1) The membranes were incubated for 90 min at 30° C., filtered on glass microfibre filters (GFC-Whatman) and the radioactivity was measured by liquid scintillation. The specific binding was calculated using either 10 μM SR141716A or 10 μM HU-210 (obtained from Prof. R. Mechoulam, Hebrew University Jerusalem). The Ki values were calculated using the Chang-Prusoff equation and expressed as concentration μM.

[2] = system: EFM-19 cells; assay: Synergistic effect of PEA on antiproliferative activity in EFM-19 cells; assay type: cell-based, human; conditions: for Proliferative activity %: control = 100
Procedure: (§2) Human breast carcinoma cells MCF-7, EFM-19 and T-47D were used. The cells were cultured and the tests were carried out as described previously [materials and methods L. De Petrocellis et al. (1998) Proc. Natl. Acad. Sci. U.S.A., 95: 8375-8380]. The activity with respect to the proliferation of the tumour cells was evaluated on the basis of the incorporation of [^3H]-thimidine. The results are expressed as IC50 in μM.
Human breast carcinoma cells EFM-19 were used. The test was carried out as indicated in Example C above.

[3] = molecular target: T2, cannabinoid receptor CB2 (Rattus norvegicus, UniProt Q9QZN9); assay: Binding to cannabinoid receptor CB2, displacement of [3H]WIN55,212-2 on RBL-2H3 cell membranes; conditions: read-out: Ki, CB2 receptor, RBL-2H3 + cells, [3H]WIN55,212-2 ligand
T2 construct: endogenous in cells; host or cells: RBL-2H3 rat basophilic leukaemia cells
T2 sequence (Q9QZN9 1-360): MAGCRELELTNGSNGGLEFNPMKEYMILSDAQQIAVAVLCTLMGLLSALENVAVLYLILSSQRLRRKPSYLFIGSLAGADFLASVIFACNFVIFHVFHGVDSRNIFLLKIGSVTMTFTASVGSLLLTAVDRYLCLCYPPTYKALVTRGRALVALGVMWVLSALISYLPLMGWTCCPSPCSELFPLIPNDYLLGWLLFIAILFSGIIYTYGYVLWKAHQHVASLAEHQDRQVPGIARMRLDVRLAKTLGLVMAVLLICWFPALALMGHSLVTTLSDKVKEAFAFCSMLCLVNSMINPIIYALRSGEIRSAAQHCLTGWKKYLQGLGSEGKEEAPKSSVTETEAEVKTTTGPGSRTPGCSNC
Procedure: Mouse neuroblastoma cells N18TG2 which selectively express the cannabinoid receptor CB1 and rat leukaemia basophil cells RBL-2H3+ which selectively express the cannabinoid receptor CB2 were used. The cells were cultured as described previously [L. Faci et al. (1995) Proc. Natl. Acad. Sci. U.S.A., 92: 3376-3380; T. Bisogno et al. (1997) J. Biol. Chem., 272: 3315-3323]. [^3H]SR141716A (55 Ci/mmol) was supplied by Amersham; [^3H]WIN55, 212-2(43 Ci/mmol) was supplied by NEN. The binding tests were carried out with membranes of the said cells resuspended in 50 mM pH 7.0 Tris buffer; 2.5 mM mgCl2; 0.8 mM EDTA; 0.05% bovine serum albumin (BSA); 0.01% ethanol and in the presence of 100 μM phenylmethylsulphonyl fluoride (PMSF; sigma) using 300 pM of [^3H]SR141716A and [^3H]WIN55,212-2, respectively, as ligand.
as §1

[4] = system: carrageenan-mediated locomotor hyperalgesia; assay type: in vivo
[5] = system: EFM-19 cells; assay: Proliferation of human breast carcinoma cells, [3H]-thymidine incorporation, EFM-19; assay type: cell-based; conditions: EFM-19, [3H]-thymidine incorporation
Procedure: as §2

[6] = system: T-47D cells; assay: Proliferation of human breast carcinoma cells, [3H]-thymidine incorporation, T-47D; assay type: cell-based
Procedure: as §2

[7] = molecular target: T3, receptor CB1 (Mus musculus, UniProt P47746); assay: Effect on stimulation of cyclic AMP by forskolin in N18TG2 cells; assay type: cell-based; conditions: 1 μM forskolin, 10 min at 37° C.; read-out: IC50, c-AMP stimulated by forskolin, N18TG2 cells
T3 construct: endogenous in cells; host or cells: N18TG2 mouse neuroblastoma cells
Procedure: The tests were carried out with the aim of checking whether or not the binding of the N-AVAM molecules to the receptor CB1 had any functional significance. […] After incubation, the cells were extracted and the c-AMP levels were evaluated using a suitable kit from Amersham according to the manufacturer's procedure. The data are expressed as IC50, in μM.

[8] = system: MCF-7 cells; assay: Proliferation of human breast carcinoma cells, [3H]-thymidine incorporation, MCF-7; assay type: cell-based; conditions: MCF-7, [3H]-thymidine incorporation
Procedure: as §2

[9] = Solubility (physicochemical properties of the product)
[10] = system: DU-145 cells; assay: Proliferation of human prostate carcinoma cells DU145 with prolactin, cell count; assay type: cell-based
Procedure: Human prostate carcinoma cells DU145 were used. The cells were cultured as described previously [materials and methods T. Janssen et al. (1996) Cancer, 77: 144-149].
The cells were then incubated in 96-well plates with Eagle's Minimal Essential Medium (MEM) supplemented with 10% foetal calf serum free of endogenous steroids. After 24 hours, the medium was removed and replaced with a medium containing prolactin (PRL) (1 mIU/ml of medium). The layer of cells was trypsinized and the cells were counted by haemocytometry.
The results are expressed as IC50 in μM.

[11] = system: carrageenan-mediated oedema; assay: Carrageenan-mediated oedema, paw volume; assay type: in vivo; conditions: 5 mg/kg, oral, carrageenan = 100
Procedure: The method described previously [materials and methods S. Mazzari et al. (1996) Europ. J. Pharmacol., 300: 227-236] were used for the purpose of evaluating the effects of N-AVAM molecules on the hyperreactivity of sensitive nerve cells.
The test compounds were administered orally suspended in physiological saline densified with CMC. The results are expressed as a percentage of variation in the volume of the paw relative to carrageenan.

[12] = Homo sapiens, test compound alone 1.0 μM, control = 100, read-out: Proliferative activity %
[13] = membranes, 300 pM [3H]WIN55,212-2, 90 min at 30° C.

T1 sequence (P47746 whole entry): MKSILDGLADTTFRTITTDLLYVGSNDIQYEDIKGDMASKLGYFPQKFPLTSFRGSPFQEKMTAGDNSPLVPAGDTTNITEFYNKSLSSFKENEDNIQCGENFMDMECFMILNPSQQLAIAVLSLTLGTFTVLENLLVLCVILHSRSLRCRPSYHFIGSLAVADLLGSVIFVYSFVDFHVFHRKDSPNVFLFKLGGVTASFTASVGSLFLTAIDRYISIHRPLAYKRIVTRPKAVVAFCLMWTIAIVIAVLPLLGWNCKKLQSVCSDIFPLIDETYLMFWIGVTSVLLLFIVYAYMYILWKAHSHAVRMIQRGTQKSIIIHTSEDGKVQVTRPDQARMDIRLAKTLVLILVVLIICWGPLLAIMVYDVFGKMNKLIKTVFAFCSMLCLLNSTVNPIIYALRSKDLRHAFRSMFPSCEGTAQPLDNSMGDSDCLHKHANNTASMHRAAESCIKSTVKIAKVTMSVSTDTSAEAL
T3 sequence (P47746 whole entry): as above

Compound | Ki [1] | IC50 [5] | IC50 [6] | IC50 [7] | IC50 [8] | Solubility in organic solvents, DMSO ([9]; in DMSO) | Solubility in organic solvents, ethanol [9] | Solubility in water [9] | Ki [3, 13] | further results
COc1cc(CNC(=O)CCCC/C=C/C(C)C)ccc1O [Capsaicin, reference compound] | > 10000 nM |  |  |  |  |  |  |  |  | 
CCCCCCCCCCCCCCCC(=O)NCCO [N-palmitoylethanolamine, reference compound] |  |  |  |  |  |  |  |  |  | activity at 1 µM [2, 12]: 100%; activity at 2.5 µM ([2]; Homo sapiens, test compound alone 2.5 μM, control = 100, read-out: Proliferative activity %): 100%; activity at 5 µM ([2]; Homo sapiens, test compound alone 5.0 μM, control = 100, read-out: Proliferative activity %): 100%; activity at 10 µM ([2]; Homo sapiens, test compound alone 10 μM, control = 100, read-out: Proliferative activity %): 100%; Ki [3]: 1 ± 0.6 nM; Percentage of variation in the administered weight (hyperalgesia) ([4]; in vivo): 100% and 82% and 80% and 76% and 64% and 66%
CCCCCCCCCCCCCCCC(=O)NCc1ccc(O)c(OC)c1 [Example 2, N-(4-hydroxy-3-methoxybenzyl)-palmitoylamide] | 1750 ± 350 nM | 1000 nM | 800 nM | 1800 nM | 2100 nM | > 10000 µg/mL | > 10000 µg/mL | sparingly soluble | > 15000 nM | 
CCCCC/C=C\C/C=C\C/C=C\C/C=C\CCCC(=O)NCCO [Anandamide, reference compound] |  |  |  |  |  |  |  |  |  | IC50 ([10]; Homo sapiens, DU-145, prolactin 1 mIU/ml): 500 nM; IC50 ([5]; Homo sapiens): 1500 nM; IC50 ([6]; Homo sapiens, T47D): 1900 nM; IC50 ([8]; Homo sapiens, MCF7): 500 nM; activity at 1 µM [2, 12]: 84%
COc1cc(CNC(=O)CCCCCCCC(=O)NCc2ccc(O)c(OC)c2)ccc1O [Example 4, N,N′-bis(4-hydroxy-3-methoxybenzyl)-nonanediamide] | 1200 ± 280 nM |  |  |  |  |  |  | sparingly soluble |  | solubility ([9]; organic solvent or mixture, in DMSO, read-out: Solubility in organic solvents, DMSO): > 10000 µg/mL
CCCCC/C=C\C/C=C\C/C=C\C/C=C\CCCC(=O)NCc1ccc(O)c(OC)c1 [Example 3, N-(4-hydroxy-3-methoxybenzyl)-arachidonoylamide] | 1500 ± 290 nM | 500 nM | 300 nM | 1300 nM | 400 nM | > 10000 µg/mL | > 10000 µg/mL | sparingly soluble | > 15000 nM | Proliferative activity % ([2]; test compound alone 0.5 μM): 70%; Proliferative activity % ([2]; test compound alone 1.0 μM): 43%
CCCCCCCC/C=C\CCCCCCCC(=O)NCc1ccc(O)c(OC)c1 [Example 1, N-(4-hydroxy-3-methoxybenzyl)oleylamide] | 1640 ± 360 nM | 700 nM | 1600 nM | 1600 nM | 1600 nM | > 10000 µg/mL | > 10000 µg/mL | sparingly soluble | > 15000 nM | IC50 ([10]; prolactin 1 mIU/ml): 200 to 300 nM; Percentage of variation in the volume of the paw relative to carrageenan ([11]; 60 min): 75%; Percentage of variation in the volume of the paw relative to carrageenan ([11]; 120 min): 70%; Percentage of variation in the volume of the paw relative to carrageenan ([11]; 180 min): 65%; Proliferative activity % ([2]; test compound alone 1.0 μM): 60%; Percentage of variation in the administered weight (hyperalgesia) ([4]; 5 mg/kg, oral, 0 min): 100%; Percentage of variation in the administered weight (hyperalgesia) ([4]; 5 mg/kg, oral, 60 min): 80%; Percentage of variation in the administered weight (hyperalgesia) ([4]; 5 mg/kg, oral, 120 min): 72%; Percentage of variation in the administered weight (hyperalgesia) ([4]; 5 mg/kg, oral, 180 min): 65%; Percentage of variation in the administered weight (hyperalgesia) ([4]; 5 mg/kg, oral, 240 min): 58%; Percentage of variation in the administered weight (hyperalgesia) ([4]; 5 mg/kg, oral, 300 min): 64%
